These results are taken from patent US20230167073A1 (Teijin Pharma Limited, priority 2020, published 2023).

Structures are written as SMILES. Where only a bound is given, the exact number is not on record here.

In the test the target is T1, Human TRPC6 (Homo sapiens, UniProt Q9Y210).
T1 construct: expressed in transfected cells
T1 sequence (Q9Y210 1-931): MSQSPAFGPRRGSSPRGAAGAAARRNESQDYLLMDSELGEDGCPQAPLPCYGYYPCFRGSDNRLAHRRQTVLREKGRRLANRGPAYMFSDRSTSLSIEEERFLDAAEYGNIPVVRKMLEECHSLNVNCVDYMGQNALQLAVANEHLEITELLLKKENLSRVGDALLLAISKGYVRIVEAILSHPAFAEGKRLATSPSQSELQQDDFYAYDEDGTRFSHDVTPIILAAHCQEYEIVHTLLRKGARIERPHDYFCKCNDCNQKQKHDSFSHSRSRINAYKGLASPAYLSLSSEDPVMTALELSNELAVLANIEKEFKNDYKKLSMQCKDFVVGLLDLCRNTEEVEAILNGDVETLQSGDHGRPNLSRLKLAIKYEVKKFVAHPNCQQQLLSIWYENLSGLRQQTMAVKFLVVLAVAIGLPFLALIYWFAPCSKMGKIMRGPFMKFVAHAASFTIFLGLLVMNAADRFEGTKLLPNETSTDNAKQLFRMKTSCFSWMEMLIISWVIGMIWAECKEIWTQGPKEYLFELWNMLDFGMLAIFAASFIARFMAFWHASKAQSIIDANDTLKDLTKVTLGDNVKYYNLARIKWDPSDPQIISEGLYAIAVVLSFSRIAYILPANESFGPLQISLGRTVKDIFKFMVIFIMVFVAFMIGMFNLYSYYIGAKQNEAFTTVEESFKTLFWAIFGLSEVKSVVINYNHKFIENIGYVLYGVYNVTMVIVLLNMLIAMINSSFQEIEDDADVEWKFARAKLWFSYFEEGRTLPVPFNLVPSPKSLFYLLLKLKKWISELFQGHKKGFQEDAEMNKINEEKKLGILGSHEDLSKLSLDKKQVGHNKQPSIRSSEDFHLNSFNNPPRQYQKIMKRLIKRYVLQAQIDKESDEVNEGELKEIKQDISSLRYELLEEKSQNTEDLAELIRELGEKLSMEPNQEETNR
As to the kind of experiment: Evaluation of TRPC6 channel inhibitory activity (1), FLIPR Calcium 5 Assay Kit, OAG stimulation (Compound Nos. 1-1293). Format: cell-based. The settings on record: Human TRPC6 stably-expressing cells, OAG 30 μM, FLIPR Calcium 5 Assay Kit; read-out: Inhibitory activity (pIC50 class) (converted). The method in brief: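 TRPC6 (human) stable cells, 24 h culture; Ca5 no-wash dye + probenecid 30 min; cpd 20 min; OAG 30 μM final; ΔF (pre-cpd min to post-OAG max); 0%/100% = no cpd / no cpd + no OAG; 4PL → pIC50, binned +/++/+++.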
Take `Cc1nc(Sc2cc(C#N)ccc2-c2ncc(CCN)cn2)cc(N2CCOCC2)n1` [compound 1254, 4-[5-(2-aminoethyl)pyrimidin-2-yl]-3-(2-methyl-6-morpholin-4-ylpyrimidin-4-yl)sulfanylbenzonitrile]: the IC50 is 0.01 to 1 µM.
For `Cc1nc(N2CCOCC2)sc1C(=O)c1cc(C#N)ccc1-c1ncc(CN)cn1` [Compound No. 1064, 4-[5-(Aminomethyl)pyrimidin-2-yl]-3-(4-methyl-2-morpholin-4-yl-1,3-thiazole-5-carbonyl)benzonitrile], the IC50 was 0.01 to 1 µM.
Next, `CC(C)(N)Cc1ccc(-c2ccc(C#N)cc2Oc2cnnc(N3CCOCC3)c2)cc1` [compound 297, 4-[4-(2-amino-2-methylpropyl)phenyl]-3-(6-morpholin-4-ylpyridazin-4-yl)oxybenzonitrile]: 0.01 to 1 µM; `CC(C)CNC(=O)c1cn(Cc2cc(C#N)ccc2-c2ccc(CCN)cc2)cn1` [compound 1114, 1-[[2-[4-(2-aminoethyl)phenyl]-5-cyanophenyl]methyl]-N-(2-methylpropyl)imidazole-4-carboxamide]: more than 1 µM.
For `Cc1nc(CNC(C)C)cn1Cc1cc(C#N)ccc1-c1ncc(CCN)cn1` [compound 1181, 4-[5-(2-aminoethyl)pyrimidin-2-yl]-3-[[2-methyl-4-[(propan-2-ylamino)methyl]imidazol-1-yl]methyl]benzonitrile], the IC50 was more than 1 µM.
Next, `Cc1nc(Oc2cc(C#N)ccc2-n2cc([C@@H](O)CN)cn2)cc(N2CCC(C(C)C)CC2)n1` [Compound 234, 4-[4-[(1R)-2-amino-1-hydroxyethyl]pyrazol-1-yl]-3-[2-methyl-6-(4-propan-2-ylpiperidin-1-yl)pyrimidin-4-yl]oxybenzonitrile]: more than 1 µM; `Cc1nc(Oc2cc(C#N)ccc2-c2ccc(C(O)CN3CCCC3)cc2)cc(-c2ccccc2)n1` (stereo not shown) [Compound 97, 4-[4-(1-hydroxy-2-pyrrolidin-1-ylethyl)phenyl]-3-(2-methyl-6-phenylpyrimidin-4-yl)oxybenzonitrile]: more than 1 µM; `Cn1nc(C(F)(F)F)cc1-c1cc(Oc2cc(C#N)ccc2-c2ccc(CCN)cc2)cnn1` [Compound 111, 4-[4-(2-aminoethyl)phenyl]-3-[6-[2-methyl-5-(trifluoromethyl)pyrazol-3-yl]pyridazin-4-yl]oxybenzonitrile]: 0.01 to 1 µM.
Consider `N#Cc1ccc(-c2ccc(CC3(N)COC3)cn2)c(Oc2cc(N3CCCC3)ncc2C#N)c1` [compound 738, 4-[2-[5-[(3-aminooxetan-3-yl)methyl]pyridin-2-yl]-5-cyanophenoxy]-6-pyrrolidin-1-ylpyridine-3-carbonitrile], for which the IC50 was 0.01 to 1 µM.
Consider `Cc1cc(Oc2cc(C#N)ccc2-c2ccc([C@H](O)CN)cn2)cc(OCC2CCCO2)n1` (stereo partly drawn) [compound 478, 4-[5-[(1S)-2-amino-1-hydroxyethyl]pyridin-2-yl]-3-[2-methyl-6-(oxolan-2-ylmethoxy)pyridin-4-yl]oxybenzonitrile], for which the IC50 was 0.01 to 1 µM.
Next, `CC(C)N(C)c1cc(Oc2cc(C#N)ccc2-c2ncc(CCN)cn2)n(C)n1` [compound 775, 4-[5-(2-aminoethyl)pyrimidin-2-yl]-3-[2-methyl-5-[methyl(propan-2-yl)amino]pyrazol-3-yl]oxybenzonitrile]: less than 0.01 µM; `Cc1nc(OCC(C)C)cc(Oc2cc(C#N)ccc2-c2ncc(CN)cn2)n1` [compound 846, 4-[5-(aminomethyl)pyrimidin-2-yl]-3-[2-methyl-6-(2-methylpropoxy)pyrimidin-4-yl]oxybenzonitrile]: 0.01 to 1 µM; `Cc1cc(Oc2cc(C#N)ccc2-c2ncc([C@H](O)CN)cn2)cc(-c2ccccn2)n1` [compound 688, 4-[5-[(1S)-2-amino-1-hydroxyethyl]pyrimidin-2-yl]-3-(2-methyl-6-pyridin-2-ylpyridin-4-yl)oxybenzonitrile]: 0.01 to 1 µM.
With `Cn1nc(N2CCOCC2)cc1Oc1cc(F)ccc1-c1ncc(CCN)cn1` [compound 973, 2-[2-[4-fluoro-2-(2-methyl-5-morpholin-4-ylpyrazol-3-yl)oxyphenyl]pyrimidin-5-yl]ethanamine] the figure was 0.01 to 1 µM.
Next, `Cc1nc(Oc2cc(C#N)ccc2-c2ncc(CN)cn2)cc(N2CCC[C@@H]2C)n1` [compound 795, 4-[5-(aminomethyl)pyrimidin-2-yl]-3-[2-methyl-6-[(2S)-2-methylpyrrolidin-1-yl]pyrimidin-4-yl]oxybenzonitrile]: less than 0.01 µM; `CC(C)n1nc(C2CC2)cc1Oc1cc(C#N)ccc1-c1ncc(CCN)cn1` [compound 380, 4-[5-(2-aminoethyl)pyrimidin-2-yl]-3-(5-cyclopropyl-2-propan-2-ylpyrazol-3-yl)oxybenzonitrile]: 0.01 to 1 µM.
For the compound `N#Cc1ccc(-c2ccc(CCN)nc2)c(Oc2cc(N3CCCCC3)cnn2)c1` [Compound 81, 4-[6-(2-aminoethyl)pyridin-3-yl]-3-(5-piperidin-1-ylpyridazin-3-yl)oxybenzonitrile], the IC50 was more than 1 µM.
With `Cc1nnc(N2CCOCC2)cc1Oc1cc(C#N)ccc1-c1ncc(CN)cn1` [compound 825, 4-[5-(aminomethyl)pyrimidin-2-yl]-3-(3-methyl-6-morpholin-4-ylpyridazin-4-yl)oxybenzonitrile] the figure was 0.01 to 1 µM; with `Cc1ccc(-c2cc(Oc3cc(C#N)ccc3-c3ncc(CCN)cn3)cc(C)n2)nn1` [compound 466, 4-[5-(2-aminoethyl)pyrimidin-2-yl]-3-[2-methyl-6-(6-methylpyridazin-3-yl)pyridin-4-yl]oxybenzonitrile], more than 1 µM; with `NCCc1cnc(-c2ccc(F)cc2Oc2cnn(CC(F)F)c2)nc1` [compound 1005, 2-[2-[2-[1-(2,2-difluoroethyl)pyrazol-4-yl]oxy-4-fluorophenyl]pyrimidin-5-yl]ethanamine], more than 1 µM.
With `Cn1nc(-c2ccccc2)cc1Oc1cc(C#N)ccc1-c1ncc(C(O)CN)cn1` (stereo not shown) [Compound 248, 4-[5-(2-amino-1-hydroxyethyl)pyrimidin-2-yl]-3-(2-methyl-5-phenylpyrazol-3-yl)oxybenzonitrile], the IC50 is less than 0.01 µM.
With `Cc1nc(Oc2cc(C#N)ccc2-c2csc(C(O)CN)n2)cc(-c2ccccc2)n1` (stereo not shown) [Compound 195, 4-[2-(2-amino-1-hydroxyethyl)-1,3-thiazol-4-yl]-3-(2-methyl-6-phenylpyrimidin-4-yl)oxybenzonitrile] the figure was 0.01 to 1 µM; with `Cc1nc(Oc2cc(C#N)ccc2-c2ncc(CCN)cn2)cc(N2C=NCCC2)n1` [compound 881, 4-[5-(2-aminoethyl)pyrimidin-2-yl]-3-[6-(5,6-dihydro-4H-pyrimidin-1-yl)-2-methylpyrimidin-4-yl]oxybenzonitrile], more than 1 µM.
Next, `Cc1nc(Oc2cc(C#N)ccc2-c2ccc(CCN)cn2)cc(N2CCN(S(C)(=O)=O)CC2)n1` [compound 654, 4-[5-(2-aminoethyl)pyridin-2-yl]-3-[2-methyl-6-(4-methylsulfonylpiperazin-1-yl)pyrimidin-4-yl]oxybenzonitrile]: more than 1 µM; `CCN(CC)c1cc(Oc2cc(F)ccc2-c2ncc(CCN)cn2)n(C)n1` [compound 972, 5-[2-[5-(2-aminoethyl)pyrimidin-2-yl]-5-fluorophenoxy]-N,N-diethyl-1-methylpyrazole-3-amine]: less than 0.01 µM.
